The values below come from ChEMBL document CHEMBL3272193, “New synthetic calcium selective ionophores. Design, synthesis, and transport properties” (J Med Chem, 1978).

The structures appear in SMILES notation.

Type in all cases: physicochemical
Series [1] in a line: Induction of sodium transport in chloroform layer up to 7 to 11 hrs.
The nature of series [2]: Induction of magnesium transport in chloroform layer up to 3 hrs.
Series [3] is described as follows: Induction of calcium transport in chloroform layer up to 7 to 11 hrs in presence of picrate.
Series [4] in a line: Induction of calcium transport in chloroform layer up to 7 to 11 hrs in absence of picrate.

Take `O=C(O)COCC(=O)NC12CC3CC(CC(C3)C1)C2`: in series [1], the Activity entry is recorded as “Not Active”.

On to `CC(CC1CCCCC1)N(C)C(=O)COCC(=O)O` (centres undefined), for which the Activity entry in series [1] was “Not Active”; in series [2] it was “Active”; in series [3] it was “Active”; in series [4], “Active”.

Regarding `O=C(O)COCC(=O)NCCc1ccccc1`, in series [1], the Activity entry was “Not Active”.

With `CN(CCc1ccccc1)C(=O)COCC(=O)O`, in series [1], the Activity entry is “Not Active”.

`O=C(O)COCC(=O)N1CCC(C(c2ccccc2)c2ccccc2)CC1`: the Activity entry in series [1] is listed as “Not Active”; in series [2], “Active”; in series [3], “Active”; in series [4], “Active”.

As to `O=C(COCCOCC(=O)NC12CC3CC(CC(C3)C1)C2)NC12CC3CC(CC(C3)C1)C2`, in series [1], the Activity result was “Not Active”.

With `O=C(COCCOCC(=O)N1c2ccccc2C=Cc2ccccc21)N1c2ccccc2C=Cc2ccccc21`, the Activity result in series [1] is “Not Active”; in series [3] it was “Active”; in series [4] it was “Active”.

For the compound `O=C(COCCOCC(=O)NCCc1c[nH]c2ccccc12)NCCc1c[nH]c2ccccc12`, the Activity result in series [1] is recorded as “Not Active”.

For the compound `O=C(COCCOCC(=O)NCCc1ccccc1)NCCc1ccccc1`, the Activity entry in series [1] is given as “Not Active”.

On to `COc1ccccc1CC(C)N(C)C(=O)COCCOCC(=O)N(C)C(C)Cc1ccccc1OC` (mixture of isomers), for which the Activity entry in series [1] is recorded as “Not Active”; in series [2] it was “Active”; in series [3], “Active”; in series [4], “Active”.

For the compound `CC(CC1CCCCC1)N(C)C(=O)COCCOCC(=O)N(C)C(C)CC1CCCCC1` (mixture of isomers), the figures for the Activity result in series [1], in series [3] and in series [4] were “Not Active”, “Active” and “Active”, respectively.
